Values of other authors as cited in US20030167999A1, “Crystal” (priority 2000, published 2003).

Experiments:
wild-type hPR = target: T1, wild-type hPR (Homo sapiens, UniProt P06401); details: with respect to progesterone (RBA=100)
T1 sequence (P06401 1-933): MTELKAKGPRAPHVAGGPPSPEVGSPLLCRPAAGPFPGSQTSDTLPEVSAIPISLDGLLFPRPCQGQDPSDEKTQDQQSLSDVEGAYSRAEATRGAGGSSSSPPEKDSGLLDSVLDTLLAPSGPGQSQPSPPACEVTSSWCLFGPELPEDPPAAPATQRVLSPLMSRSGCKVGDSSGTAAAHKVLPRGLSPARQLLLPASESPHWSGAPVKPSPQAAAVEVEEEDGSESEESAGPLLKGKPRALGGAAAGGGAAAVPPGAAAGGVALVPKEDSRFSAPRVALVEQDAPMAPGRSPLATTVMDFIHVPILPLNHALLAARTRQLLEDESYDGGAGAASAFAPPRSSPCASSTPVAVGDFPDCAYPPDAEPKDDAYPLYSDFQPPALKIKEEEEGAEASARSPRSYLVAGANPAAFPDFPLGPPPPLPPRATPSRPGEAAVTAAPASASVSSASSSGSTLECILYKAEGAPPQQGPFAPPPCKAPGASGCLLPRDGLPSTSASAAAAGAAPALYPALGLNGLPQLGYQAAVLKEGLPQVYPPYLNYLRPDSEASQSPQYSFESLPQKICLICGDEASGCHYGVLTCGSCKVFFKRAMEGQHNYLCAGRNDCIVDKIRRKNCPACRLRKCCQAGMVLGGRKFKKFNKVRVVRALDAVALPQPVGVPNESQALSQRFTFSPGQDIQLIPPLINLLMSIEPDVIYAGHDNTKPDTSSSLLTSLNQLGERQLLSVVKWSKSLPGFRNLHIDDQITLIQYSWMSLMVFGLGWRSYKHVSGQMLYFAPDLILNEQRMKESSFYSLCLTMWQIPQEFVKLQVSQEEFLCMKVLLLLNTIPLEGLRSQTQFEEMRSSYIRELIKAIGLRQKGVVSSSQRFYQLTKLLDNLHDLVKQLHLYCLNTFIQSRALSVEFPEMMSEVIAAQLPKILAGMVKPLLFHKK

wild-type hAR = wild-type hAR (Homo sapiens, UniProt P10275)
Sequence of wild-type hAR (P10275 whole entry): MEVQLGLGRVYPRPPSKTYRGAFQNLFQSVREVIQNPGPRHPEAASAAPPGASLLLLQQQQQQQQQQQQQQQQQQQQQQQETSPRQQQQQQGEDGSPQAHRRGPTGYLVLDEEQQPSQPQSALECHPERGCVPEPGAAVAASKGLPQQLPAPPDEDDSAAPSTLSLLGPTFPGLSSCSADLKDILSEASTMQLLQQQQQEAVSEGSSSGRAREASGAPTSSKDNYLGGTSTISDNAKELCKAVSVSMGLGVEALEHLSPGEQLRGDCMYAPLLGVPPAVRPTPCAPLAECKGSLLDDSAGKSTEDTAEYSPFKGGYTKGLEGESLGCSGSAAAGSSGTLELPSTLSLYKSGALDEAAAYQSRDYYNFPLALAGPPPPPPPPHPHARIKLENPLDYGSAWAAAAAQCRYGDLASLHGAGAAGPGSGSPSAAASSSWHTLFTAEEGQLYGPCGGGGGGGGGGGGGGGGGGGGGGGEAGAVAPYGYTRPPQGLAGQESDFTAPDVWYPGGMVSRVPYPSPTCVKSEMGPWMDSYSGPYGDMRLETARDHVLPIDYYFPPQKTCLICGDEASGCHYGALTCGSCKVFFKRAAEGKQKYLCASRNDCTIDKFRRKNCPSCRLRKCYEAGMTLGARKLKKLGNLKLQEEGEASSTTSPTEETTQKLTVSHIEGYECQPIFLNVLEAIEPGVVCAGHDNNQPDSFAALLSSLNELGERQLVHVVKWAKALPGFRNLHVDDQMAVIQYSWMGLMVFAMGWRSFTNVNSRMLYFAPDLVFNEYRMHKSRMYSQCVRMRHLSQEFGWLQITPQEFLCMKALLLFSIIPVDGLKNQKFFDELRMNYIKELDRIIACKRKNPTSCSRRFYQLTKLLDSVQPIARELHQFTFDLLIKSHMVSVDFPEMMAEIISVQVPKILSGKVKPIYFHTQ

[1] = target: AR receptor of LNCaP (T877A) (Homo sapiens, UniProt P10275, T878A); details: single point mutation T877A
Sequence of AR receptor of LNCaP (T877A) (P10275 whole entry T878A): as the sequence (P10275 whole entry) above, with T878A counted along it

hAR mutant L707R = hAR mutant L707R (Homo sapiens, UniProt P10275, L708R); details: Scatchard plot analysis
Sequence of hAR mutant L707R (P10275 whole entry L708R): as the sequence (P10275 whole entry) above, with L708R counted along it

hAR mutation F764S = hAR mutation F764S (Homo sapiens, UniProt P10275, F765S)
Sequence of hAR mutation F764S (P10275 whole entry F765S): as the sequence (P10275 whole entry) above, with F765S counted along it

hAR M742V = hAR M742V (Homo sapiens, UniProt P10275, M743V)
Sequence of hAR M742V (P10275 whole entry M743V): as the sequence (P10275 whole entry) above, with M743V counted along it

hAR M7421 = hAR M7421 (Homo sapiens, UniProt P10275, M743I)
Sequence of hAR M7421 (P10275 whole entry M743I, the tested form may be a part): as the sequence (P10275 whole entry) above, with M743I counted along it

hAR LBD M787V = hAR LBD M787V (Homo sapiens, UniProt P10275, M788V)
Sequence of hAR LBD M787V (P10275 whole entry M788V, the tested form may be a part): as the sequence (P10275 whole entry) above, with M788V counted along it

For `C[C@]1(O)CC[C@H]2[C@@H]3CCC4=CC(=O)CCC4=C3C=C[C@@]21C` [R1881, metribolone], which “relative binding affinity (RBA)” value (wild-type hPR) is on record?
The value was 190.

What about the “relative binding affinity (RBA)” value (wild-type hAR) of the same compound?
The value was 290.

And the “R1881 binding versus wild type” value [1]?
The value was “identical”.

And the binding affinity (hAR mutant L707R)?
Its binding affinity is “undetectable”.

What about the ligand dissociation (hAR mutation F764S) of the same compound?
Its ligand dissociation is “rapid ligand dissociation”.

What about the “effect of mutation on binding affinity” value (hAR M742V) of the same compound?
Its value is “dramatically reduce”.

And the “effect of mutation on binding affinity” value (hAR M7421)?
The value was “dramatically reduce”.

What about the binding (hAR LBD M787V) of the same compound?
Its binding is “undetectable or strongly reduced”.
